{
  "source": "patent US20230338380A1",
  "about": "“Stable Immediate Release Tablet and Capsule Formulations of 1-((2S,5R)-5-((7H-Pyrrolo[2,3-D]Pyrimidin-4-YL)Amino)-2-Methylpiperidin-1-YL)Prop-2-EN-1-One” (Pfizer R&D UK Limited, priority 2019, published 2023)",
  "experiment": "Dynamic vapor sorption (DVS) of filler excipients",
  "format": "physicochemical",
  "details": "excipient alone; humidity of 90% RH",
  "source_text": "Also noted were the stability results for experimental formulation E, blended with lactose anhydrous. […] Lactose anhydrous was used in blend E rather than lactose monohydrate due to concerns regarding the impact of water upon the degradation of PF-06651600-15. To further explore the hygroscopic properties of lactose monohydrate, dynamic vapor sorption (DVS) traces were generated for both lactose anhydrous and lactose monohydrate (FIG. 24). The results for both were similar as the mass increased less than 2% at a humidity of 90% RH.",
  "data": [
    {"smiles": "OC[C@H]1O[C@@H](O[C@H]2[C@H](O)[C@@H](O)C(O)O[C@@H]2CO)[C@H](O)[C@@H](O)[C@H]1O", "note": "(stereo partly shown) [lactose anhydrous]", "values": [
      {"measurement": "Mass increase (DVS)", "value": "~1.1", "unit": "%"}
    ]}
  ]
}
